According to PubChem BioAssay AID2060499 (Molecular Pharmacology Branch, DTP, NCI, 2025):
pIC50: −log10 of the molar value.

Test system: 777334-354-R2-J4-PDC tumor spheroids with HUVEC/MSC, viability
Assay: Anticancer human tumor 777334-354-R2-J4-PDC patient-derived pancreatic adenocarcinoma cell line growth inhibition [GQUAD]
Conditions: for pIC50: curve of first compound; for viability, T/C: stronger effect = lower value
Summary of the method: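 Viability of tumor cells grown as complex spheroids with endothelial and stromal cells, exposed to drug combinations. Top concentration at or near clinical Cmax (else 10 microM), diluted in half-log increments.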

[1] = second compound 0.0316 µM, first compound 0.0316 µM
[2] = second compound 0.0316 µM, first compound 0.1 µM
[3] = second compound 0.0316 µM, first compound 0.316 µM
[4] = second compound 0.0316 µM, first compound 1 µM
[5] = second compound 0.0316 µM, first compound 3.16 µM
[6] = second compound 0.0316 µM, first compound 10 µM
[7] = second compound 0.1 µM, first compound 0.0316 µM
[8] = second compound 0.1 µM, first compound 0.1 µM
[9] = second compound 0.1 µM, first compound 0.316 µM
[10] = second compound 0.1 µM, first compound 1 µM
[11] = second compound 0.1 µM, first compound 3.16 µM
[12] = second compound 0.1 µM, first compound 10 µM
[13] = second compound 0.316 µM, first compound 0.0316 µM
[14] = second compound 0.316 µM, first compound 0.1 µM
[15] = second compound 0.316 µM, first compound 0.316 µM
[16] = second compound 0.316 µM, first compound 1 µM
[17] = second compound 0.316 µM, first compound 3.16 µM
[18] = second compound 0.316 µM, first compound 10 µM
[19] = second compound 1 µM, first compound 0.0316 µM
[20] = second compound 1 µM, first compound 0.1 µM
[21] = second compound 1 µM, first compound 0.316 µM
[22] = second compound 1 µM, first compound 1 µM
[23] = second compound 1 µM, first compound 3.16 µM
[24] = second compound 1 µM, first compound 10 µM
[25] = second compound 3.16 µM, first compound 0.0316 µM
[26] = second compound 3.16 µM, first compound 0.1 µM
[27] = second compound 3.16 µM, first compound 0.316 µM
[28] = second compound 3.16 µM, first compound 1 µM
[29] = second compound 3.16 µM, first compound 3.16 µM
[30] = second compound 3.16 µM, first compound 10 µM
[31] = second compound 10 µM, first compound 0.0316 µM
[32] = second compound 10 µM, first compound 0.1 µM
[33] = second compound 10 µM, first compound 0.316 µM
[34] = second compound 10 µM, first compound 1 µM
[35] = second compound 10 µM, first compound 3.16 µM
[36] = second compound 10 µM, first compound 10 µM
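Also: spheroids exposed to compounds for 7 days before readout.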

**Q.** What does the source list for `CC(=O)O[C@H]1C(=O)[C@@]2(C)[C@H]([C@H](OC(=O)c3ccccc3)[C@]3(O)C[C@H](OC(=O)[C@H](O)[C@@H](NC(=O)c4ccccc4)c4ccccc4)C(C)=C1C3(C)C)[C@]1(OC(C)=O)CO[C@@H]1C[C@@H]2O` + CN(C)c1ccc(Nc2c3ccc(NC(=O)CCN4CCCC4)cc3nc3cc(NC(=O)CCN4CCCC4)ccc23)cc1?
**A.** pIC50 (second compound 0.0316 µM): 6.65; pIC50 (second compound 0.1 µM): 6.66; pIC50 (second compound 0.316 µM): 6.72; pIC50 (second compound 1 µM): 7.05; pIC50 (second compound 3.16 µM): 7.03; pIC50 (second compound 10 µM): 6.68; viability, T/C [1]: 76.8%; viability, T/C [2]: 57.2%; viability, T/C [3]: 48.6%; viability, T/C [4]: 39.2%; viability, T/C [5]: 43.2%; viability, T/C [6]: 46.2%; viability, T/C [7]: 72.7%; viability, T/C [8]: 58.1%; viability, T/C [9]: 46.5%; viability, T/C [10]: 38.9%; viability, T/C [11]: 49.7%; viability, T/C [12]: 48.5%; viability, T/C [13]: 73.9%; viability, T/C [14]: 54.4%; viability, T/C [15]: 47%; viability, T/C [16]: 41.2%; viability, T/C [17]: 49.6%; viability, T/C [18]: 42%; viability, T/C [19]: 59.2%; viability, T/C [20]: 50.6%; viability, T/C [21]: 40.5%; viability, T/C [22]: 39.3%; viability, T/C [23]: 39%; viability, T/C [24]: 35.1%; viability, T/C [25]: 65.8%; viability, T/C [26]: 51%; viability, T/C [27]: 38.4%; viability, T/C [28]: 45.6%; viability, T/C [29]: 44.2%; viability, T/C [30]: 39.4%; viability, T/C [31]: 70%; viability, T/C [32]: 51.8%; viability, T/C [33]: 51.2%; viability, T/C [34]: 46.5%; viability, T/C [35]: 41.8%; viability, T/C [36]: 46.3%

**Q.** With `CC(C)(O)C1CCC(Nc2ccc3ncc(-c4cccc(C(F)(F)F)c4)n3n2)CC1` (stereo unspecified) + CN(C)c1ccc(Nc2c3ccc(NC(=O)CCN4CCCC4)cc3nc3cc(NC(=O)CCN4CCCC4)ccc23)cc1 as the compound, how does the pIC50 (second compound 0.0316 µM) read?
**A.** 6.07

**Q.** And the pIC50 (second compound 0.1 µM)?
**A.** 6.04

**Q.** What about the pIC50 (second compound 0.316 µM) of the same compound?
**A.** 5.87

**Q.** What about the pIC50 (second compound 1 µM) of the same compound?
**A.** 5.87

**Q.** And the pIC50 (second compound 3.16 µM)?
**A.** 5.97

**Q.** What about the pIC50 (second compound 10 µM) of the same compound?
**A.** 6.17

**Q.** And the viability, T/C [1]?
**A.** 99.9%

**Q.** And the viability, T/C [2]?
**A.** 90.2%

**Q.** What about the viability, T/C [3] of the same compound?
**A.** 90.2%

**Q.** And the viability, T/C [4]?
**A.** 43.4%

**Q.** What about the viability, T/C [5] of the same compound?
**A.** 32.3%

**Q.** And the viability, T/C [6]?
**A.** 35.5%

**Q.** What about the viability, T/C [7] of the same compound?
**A.** 98.2%

**Q.** What about the viability, T/C [8] of the same compound?
**A.** 86.5%

**Q.** And the viability, T/C [9]?
**A.** 81.4%

**Q.** What about the viability, T/C [10] of the same compound?
**A.** 47.4%

**Q.** And the viability, T/C [11]?
**A.** 31.3%

**Q.** What about the viability, T/C [12] of the same compound?
**A.** 31.5%

**Q.** What about the viability, T/C [13] of the same compound?
**A.** 89%

**Q.** And the viability, T/C [14]?
**A.** 68.1%

**Q.** What about the viability, T/C [15] of the same compound?
**A.** 79.7%

**Q.** And the viability, T/C [16]?
**A.** 55%

**Q.** And the viability, T/C [17]?
**A.** 36.6%

**Q.** What about the viability, T/C [18] of the same compound?
**A.** 33.9%

**Q.** And the viability, T/C [19]?
**A.** 78.9%

**Q.** And the viability, T/C [20]?
**A.** 89.9%

**Q.** And the viability, T/C [21]?
**A.** 81.4%

**Q.** What about the viability, T/C [22] of the same compound?
**A.** 56.3%

**Q.** And the viability, T/C [23]?
**A.** 29.6%

**Q.** And the viability, T/C [24]?
**A.** 33.3%

**Q.** And the viability, T/C [25]?
**A.** 76.8%

**Q.** What about the viability, T/C [26] of the same compound?
**A.** 82.3%

**Q.** And the viability, T/C [27]?
**A.** 80.5%

**Q.** And the viability, T/C [28]?
**A.** 51.2%

**Q.** What about the viability, T/C [29] of the same compound?
**A.** 27.9%

**Q.** What about the viability, T/C [30] of the same compound?
**A.** 27%

**Q.** What about the viability, T/C [31] of the same compound?
**A.** 83.9%

**Q.** And the viability, T/C [32]?
**A.** 77.2%

**Q.** And the viability, T/C [33]?
**A.** 67.8%

**Q.** What about the viability, T/C [34] of the same compound?
**A.** 41.6%

**Q.** What about the viability, T/C [35] of the same compound?
**A.** 19.1%

**Q.** And the viability, T/C [36]?
**A.** 19.4%

**Q.** `O=C(NO)c1cnc(N2CCN(S(=O)(=O)c3ccc4ccccc4c3)CC2)nc1` + CN(C)c1ccc(Nc2c3ccc(NC(=O)CCN4CCCC4)cc3nc3cc(NC(=O)CCN4CCCC4)ccc23)cc1 was tested. Which pIC50 (second compound 0.0316 µM) did it give?
**A.** 6.03

**Q.** And the pIC50 (second compound 0.1 µM)?
**A.** 5.89

**Q.** What about the pIC50 (second compound 0.316 µM) of the same compound?
**A.** 5.97

**Q.** What about the pIC50 (second compound 1 µM) of the same compound?
**A.** 6.07

**Q.** And the pIC50 (second compound 3.16 µM)?
**A.** 6.02

**Q.** What about the pIC50 (second compound 10 µM) of the same compound?
**A.** 6.00

**Q.** And the viability, T/C [1]?
**A.** 103%

**Q.** What about the viability, T/C [2] of the same compound?
**A.** 89.5%

**Q.** What about the viability, T/C [3] of the same compound?
**A.** 79.4%

**Q.** And the viability, T/C [4]?
**A.** 50.8%

**Q.** What about the viability, T/C [5] of the same compound?
**A.** 11.1%

**Q.** What about the viability, T/C [6] of the same compound?
**A.** 0.3%

**Q.** What about the viability, T/C [7] of the same compound?
**A.** 91.5%

**Q.** And the viability, T/C [8]?
**A.** 90.6%

**Q.** What about the viability, T/C [9] of the same compound?
**A.** 83.5%

**Q.** What about the viability, T/C [10] of the same compound?
**A.** 62.3%

**Q.** What about the viability, T/C [11] of the same compound?
**A.** 8.7%

**Q.** What about the viability, T/C [12] of the same compound?
**A.** 1.67%

**Q.** What about the viability, T/C [13] of the same compound?
**A.** 86.8%

**Q.** And the viability, T/C [14]?
**A.** 94.7%

**Q.** What about the viability, T/C [15] of the same compound?
**A.** 76.6%

**Q.** And the viability, T/C [16]?
**A.** 54.8%

**Q.** What about the viability, T/C [17] of the same compound?
**A.** 10.9%

**Q.** And the viability, T/C [18]?
**A.** 2.03%

**Q.** What about the viability, T/C [19] of the same compound?
**A.** 84.3%

**Q.** And the viability, T/C [20]?
**A.** 80.8%

**Q.** What about the viability, T/C [21] of the same compound?
**A.** 62.5%

**Q.** What about the viability, T/C [22] of the same compound?
**A.** 54.2%

**Q.** What about the viability, T/C [23] of the same compound?
**A.** 12%

**Q.** And the viability, T/C [24]?
**A.** 0.73%

**Q.** What about the viability, T/C [25] of the same compound?
**A.** 86.3%

**Q.** And the viability, T/C [26]?
**A.** 72.1%

**Q.** And the viability, T/C [27]?
**A.** 65.9%

**Q.** What about the viability, T/C [28] of the same compound?
**A.** 54%

**Q.** And the viability, T/C [29]?
**A.** 10.9%

**Q.** And the viability, T/C [30]?
**A.** 0.96%

**Q.** What about the viability, T/C [31] of the same compound?
**A.** 66%

**Q.** What about the viability, T/C [32] of the same compound?
**A.** 65.3%

**Q.** What about the viability, T/C [33] of the same compound?
**A.** 63.1%

**Q.** What about the viability, T/C [34] of the same compound?
**A.** 50.4%

**Q.** What about the viability, T/C [35] of the same compound?
**A.** 11.1%

**Q.** And the viability, T/C [36]?
**A.** 0.95%
